Test results reported in US20060258581A1, “Methods and composition for derepressions of IAP-inhibited caspase” (priority 2001, published 2006).
Entries after “also recorded” stand apart in the source; their conditions may differ. Read-outs that look alike come from different tables or passages of the source.

Legend:
XIAP-inhibited caspase-3 = molecular target: T1, XIAP-inhibited caspase-3 (Homo sapiens, UniProt P98170); assay: IAP derepression assay: Ac-DEVD-AFC hydrolysis by caspase-3 in the presence of GST-XIAP; type: biochemical; conditions: in words
T1 construct: in a caspase derepression assay using full length XIAP; made in house; host or cells: bacteria
T1 sequence (P98170 whole entry): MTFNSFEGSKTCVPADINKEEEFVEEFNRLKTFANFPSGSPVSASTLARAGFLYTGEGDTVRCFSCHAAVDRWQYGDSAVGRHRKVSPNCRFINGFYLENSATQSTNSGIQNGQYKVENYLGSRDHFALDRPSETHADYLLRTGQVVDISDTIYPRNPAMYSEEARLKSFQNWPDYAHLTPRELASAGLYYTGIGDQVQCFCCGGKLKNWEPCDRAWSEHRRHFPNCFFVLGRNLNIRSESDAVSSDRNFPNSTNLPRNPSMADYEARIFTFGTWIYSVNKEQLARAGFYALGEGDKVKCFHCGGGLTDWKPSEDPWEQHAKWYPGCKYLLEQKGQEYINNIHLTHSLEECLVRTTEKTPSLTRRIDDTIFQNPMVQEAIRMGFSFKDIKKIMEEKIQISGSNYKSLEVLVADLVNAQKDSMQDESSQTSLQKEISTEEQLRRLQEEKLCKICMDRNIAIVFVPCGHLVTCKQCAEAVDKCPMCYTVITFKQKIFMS
Method: The ratio of Vmax for hydrolysis of Ac-DEVD-AFC in the presence and absence of the candidate mixture was calculated and used to identify those that contain an agent that derepresses an IAP-inhibited caspase.
Each mixture was aliquoted in a 25 microliter volume and in duplicate to a well of a 96 well microtiter plate. […] Fluorescence of liberated AFC was immediately detected from each well for 30 minutes at 30 second intervals. The Vmax for hydrolysis of AC-DEVD-AFC from each well was measured using the softmax software package.

HeLa cells = assay: Transfected HeLa cells, apoptosis by Annexin V; type: cell-based; conditions: 5 μM, 20 hours
Method: In addition to transfecting the cells with full-length XIAP, analogous assays were performed with HeLa cells transfected with plasmids over-expressing various XIAP mutants. […] The mutant was produced by site-directed mutagenesis to modify positions 148, 219, 223, 314 and 323 to contain alanine. HeLa cells were also transiently transfected with plasmids encoding Bcl-XL, an anti-apoptotic protein that operates upstream of caspases to suppress Cytochrome C release from mitochondria. HeLa cells (2.5×10^5) were seeded onto six well plates in 2 mL DMEM H21 with 5% FBS. After 24 hrs, cells were transfected (Gene Porter) with plasmids. […] Both floating and adherent cells were then recovered from cultures, washed, and apoptosis was determined by Annexin V staining using flow cytometry.
Bcl-XL over-expression did afford resistance to traditional anticancer drugs such as etoposide and CrmA (a caspase-8 inhibitor), and protected cells from apoptosis induced by TRAIL, confirming that these anti-apoptotic proteins were functional in these experiments.

[1] = test system: Jurkat and HeLa tumor cell lines; assay: Tumor cell lines Jurkat and HeLa, 2 days, annexin-V; type: cell-based; design: dose or concentration left out as unconfirmed
Method: (§1) After 2 days, cell viability was assessed by annexin-V staining.

Jurkat leukemia cells [2] = assay: Jurkat leukemia cell death, Annexin V/propidium iodide flow cytometry; type: cell-based; conditions: for cells killed: one day treatment
Method: The following assay was used to test the ability of individual compounds from the TPI 1396 and TPI 1391 libraries to induce apoptosis of cultured tumor cell lines. Each of the compounds listed in Table IX was individually added to Jurkat leukemia cells (6.25×10^5 cells/mL) in RPMI containing 2.5% FBS at various concentrations for 20 hours. After incubation, cells were washed and stained with FITC-conjugated Annexin V antibody and propidium iodide (Biovision; Mountain View, Calif.). Cells were incubated for 20 minutes at room temperature in the dark and fluorescence was measured by flow cytometry (FACScan, Immunocytometry system; Becton-Dickinson; San Jose, Calif.). Cells staining positive for Annexin V were deemed non-viable.
The TPI I396-34 and TPI 1391-28 compounds were further tested as set forth below.

[3] = test system: tumor cells pulsed with specific antigen, antigen-specific T cells; assay: Antigen-specific CTL cytotoxicity, 51Cr release; type: cell-based; conditions: 10 μM, 4 hours
Method: After 4 hours, ^51Cr release was measured. Data shown in FIG. 39 are expressed as a percentage of total release induced by detergent lysis, and data represent mean±standard deviation of duplicate determinations.

[4] = test system: PC-3 and LNCaP prostate cancer cell lines; assay: Clonogenic survival (colony formation) assay; type: cell-based; conditions: Homo sapiens
Method: In addition to short-term cytotoxicity assays selected polyphenylurea compounds were tested for effects on clonogenic survival of cancer cells in colony formation assays, which can be considered a more stringent test of anticancer activity.

[5] = test system: PPC1 prostate cancer cells; assay: PPC1 prostate cancer xenograft in Balb/C nu-/nu- mice; type: in vivo; conditions: 30 mg/kg i.p. for 2 or 3 days
Description: Similar data was obtained using TPI 1396-22 (see FIGS. 33a and 33b). […] In FIG. 33b, the mice were sacrificed at day 19 and the tumors excised and weighed.

[6] = test system: HCT-116 colon cancer cells; assay: HCT-116 colon cancer xenograft in Balb/C nu-/nu- mice; type: in vivo; conditions: 30 mg/kg i.p. on days 6, 7 and 8
Method: Additional experiments were performed using a different tumor xenograft model. HCT-116 colon cancer cells (2.5 million) were injected subcutaneously in the flanks of female Balb/C nu-/nu-mice. […] Tumor volume was measured by external calipers at least twice weekly for 19 days (see FIG. 32c). On day 19, the mice were sacrificed and the tumors were excised and weighed.

[7] = test system: Du145 prostate cancer cells; assay: Combination with anticancer drugs, MTT assay; type: cell-based; conditions: 10 μM, 48 hours
Method: The percentage of viable cells relative to control was determined using a MTT (3-(4,5-dimethylthiazolyl-2)-2,5-diphenyltetrazolium bromide) assay which is commercially available (Sigma). […] Similar results were obtained for PPC1 (FIG. 31b) and PC3 (FIG. 31c) prostate cancer cells treated with VP16, DOX, or TAXOL, and for H460 (FIG. 31d) lung cancer cells treated with VP16 or DOX.

[8] = test system: mouse embryo fibroblasts, human prostate epithelial cells, peripheral blood lymphocytes; assay: Normal cells (MEFs, human prostate epithelial cells, PBLs), 2 days, annexin-V; type: cell-based; design: dose or concentration left out as unconfirmed
Method: as §1

[9] = test system: caspase-3 and caspase-7 activity in Jurkat cells; assay: Caspase-3 and caspase-7 activity in whole Jurkat cells, cell permeable substrate; type: cell-based; conditions: 8 μM, 20 hours
[10] = test system: PPC1, ALVA31, DU145 and HeLa cells; assay: Combination with TRAIL; type: cell-based; conditions: 1 µM
Method: Similar tests of the effects of polyphenyl urea compounds on apoptosis induction by the biological agent TRAIL, an apoptosis inducing member of the Tumor Necrosis Factor (TNF) family were also performed.

[11] = test system: normal bone marrow mononuclear cells; assay: Normal bone marrow mononuclear cells versus Jurkat, Annexin V, 20 hours; type: cell-based; conditions: 5 μM
Method: After incubation, cells were washed, stained with FITC-conjugated Annexin V antibody and propidium iodide, and fluorescence measured by flow cytometry as described above.

Jurkat leukemia cells [12] = assay: Jurkat leukemia cell death, Annexin V/propidium iodide flow cytometry; type: cell-based
full length XIAP = full length XIAP (Homo sapiens, UniProt P98170); assay: Potency of IAP antagonists in vitro (Table VIII; caspase derepression / SMAC competition with full length XIAP)
Chain of full length XIAP (P98170 whole entry): as above

## COc1ccc(CCN2CCC[C@@H]2CN(C(=O)Nc2ccccc2)[C@@H](CNC(=O)Nc2ccccc2)CC2CCCCC2)cc1 [TPI 1396-34]
XIAP-inhibited caspase-3
  activity in the caspase derepression assay using full length XIAP: active XIAP inhibitors
HeLa cells
  apoptosis in HeLa cells over-expressing Bcl-XL: not blocked
  apoptosis in HeLa cells over-expressing full-length XIAP: protected
  apoptosis in HeLa cells transfected with a control vector: induced apoptosis
[1]
  increase of killing above background: > 4 fold
Jurkat leukemia cells [2]; 5 μM
  cells killed: about 75%
Jurkat leukemia cells [2]; 8 μM
  cells killed: ~85%
Jurkat leukemia cells [2]; 10 µM
  time to maximum killing: about 24 hours
Jurkat leukemia cells [2]; Homo sapiens, Jurkat, 20 h, 1 μM, 20 hours, read-out: % nonviable cells
  cytotoxicity at 1 µM: 13%
Jurkat leukemia cells [2]; Homo sapiens, Jurkat, 20 h, 5 μM (first column headed 5), 20 hours, read-out: % nonviable cells
  cytotoxicity at 5 µM: 73%
Jurkat leukemia cells [2]; Homo sapiens, Jurkat, 20 h, 5 μM (second column headed 5), 20 hours, read-out: % nonviable cells
  cytotoxicity at 5 µM: 51%
Jurkat leukemia cells [2]; Homo sapiens, Jurkat, 20 h, 10 μM, 20 hours, read-out: % nonviable cells
  cytotoxicity at 10 µM: 62%
Jurkat leukemia cells [2]; Homo sapiens, Jurkat, 20 h, 25 μM, 20 hours, read-out: % nonviable cells
  cytotoxicity at 25 µM: 83%
Jurkat leukemia cells [2]; Homo sapiens, Jurkat, 20 h, 50 μM, 20 hours, read-out: % nonviable cells
  cytotoxicity at 50 µM: 85%
Jurkat leukemia cells [2]; Homo sapiens, Jurkat, 24 h, one-day exposure, read-out: EC50 for killing Jurkat leukemia cells
  EC50: ~6.5 µM
[3]
  CTL-mediated lysis of tumor targets: sensitizes tumor targets to CTL-mediated lysis
[4]; 10 μM, read-out: colony formation, % of control
  activity at 10 µM: < 5%
[4]; 3 days culture, colonies counted one week later, read-out: average EC50 dose, clonogenic survival
  EC50: 3 µM
[5]
  tumor size / growth, PPC1 xenograft: reduced tumor size; also recorded: significantly slowed the rate of growth
[6]
  tumor size / growth, HCT116 xenograft: tumor size was reduced; also recorded: significantly slowed the rate of growth
[7]
  effect on dose-dependent cytotoxicity of VP16, DOX and TAXOL: significantly increased dose-dependent cytotoxicity
[8]
  increase of percentage cell death above background: less than one-fold
[9]
  caspase activation in whole cells: induced caspase activation
[10]
  sensitization to TRAIL-induced apoptosis: sensitized
[11]
  toxicity to normal bone marrow cells: little toxicity
Jurkat leukemia cells [12]; 10 µM
  time to half-maximal killing: approximately 12 hours
Jurkat leukemia cells [12]; 100 μM zVAD-fmk, 20 hours
  apoptosis in the presence of zVAD-fmk: suppressible
Full length XIAP
  EC50: 77.1 µM
